pIC50: −log10 of the molar value.
Columns and labels:
[1] = test system: asymmetric di-methyl PABP1 in RKO cells; experiment: In Cell Western (ICW) for asymmetric di-methyl PABP1 and DNA content in RKO cells; format: cell-based; conditions: Homo sapiens, RKO, In Cell Western
Source text: RKO adherent cells were purchased from ATCC (American Type Culture Collection), Manassas, Va., USA. DMEM/Glutamax medium, penicillin-streptomycin, heat inactivated fetal bovine serum, 0.05% trypsin and D-PBS were purchased from Life Technologies, Grand Island, N.Y., USA. Odyssey blocking buffer, 800CW goat anti-rabbit IgG (H+L) antibody, and Licor Odyssey infrared scanner were purchased from Licor Biosciences, Lincoln, Nebr., USA. Mono-methyl arginine antibody was purchased from Cell Signaling Technology, Danvers, Mass., USA. Methanol was purchased from VWR, Franklin, Mass., USA. 10% Tween 20 was purchased from KPL, Inc., Gaithersburg, Md., USA. […] was purchased from Biostatus Limited, Leicestershire, UK. RKO adherent cells were maintained in growth medium (DMEM/Glutamax medium supplemented with 10% v/v heat inactivated fetal bovine serum and 100 units/mL penicillin-streptomycin) and cultured at 37° C. under 5% CO2. Cell Treatment, in Cell Western (ICW) for Detection of Asymmetric Di-Methyl PABP1 and DNA Content. RKO cells were seeded in assay medium at a concentration of 30,000 cells per mL to a poly-D-lysine coated 384 well culture plate (BD Biosciences 356697) with 50 μL per well. Compound (100 nL) from a 96-well source plate was added directly to 384 well cell plate. Plates were incubated at 37° C., 5% CO2 for 48 hours. After two days of incubation, plates were brought to room temperature outside of the incubator for ten minutes and blotted on paper towels to remove cell media. Cells were fixed for 20 minutes at room temperature by adding 50 μl of 8% PFA followed by aspiration of supernatant with the Biotek EL406 plate washer. Cells were then permeabilized by addition of 50 μL of ice cold 100% methanol directly to each well and incubated for 30 min at room temperature. After 30 min, plates were transferred to a Biotek EL406 plate washer and washed 2 times with 100 μL per well of wash buffer (1×PBS). Next 60 μL per well of Odyssey blocking buffer (Odyssey Buffer with 0.1% Tween 20 (v/v)) were added to each plate and incubated 1 hour at room temperature. Blocking buffer was removed and 20 μL per well of primary antibody was added (asymmetric-methyl PABP1) diluted 1:400 in Odyssey buffer with 0.1% Tween 20 (v/v)) and plates were incubated overnight (16 hours) at 4° C. Plates were washed 5 times with 100 μL per well of wash buffer. Next 20 μL per well of secondary antibody was added (1:800 800CW goat anti-rabbit IgG (H+L) antibody, 1:2000 DRAQS in Odyssey buffer with 0.1% Tween 20 (v/v)) and incubated for 1 hour at room temperature. The plates were washed 5 times with 100 μL per well wash buffer then 2 times with 100 μL per well of water. Plates were allowed to dry at room temperature then imaged on the Licor Odyssey machine which measures integrated intensity at 700 nm and 800 nm wavelengths. Both 700 and 800 channels were scanned. Calculations: First, the ratio for each well was determined by: Each plate included fourteen control wells of DMSO only treatment (minimum inhibition) as well as fourteen control wells for maximum inhibition treated with 20 μM of a reference compound. The average of the ratio values for each control type was calculated and used to determine the percent activation for each test well in the plate. Reference compound was serially diluted three-fold in DMSO for a total of nine test concentrations, beginning at 20 μM. Percent inhibition was determined and IC50 curves were generated using triplicate wells per concentration of compound.

Human CARM1 (PRMT4) = molecular target: T1, Human CARM1 (PRMT4) (Homo sapiens, UniProt Q86X55); experiment: CARM1 biochemical assay (3H-SAM Flashplate, peptide substrate); conditions: read-out: CARM1_ IC50
T1 construct: Flag-CARM1-His; made in house; host or cells: HEK 293F cells (BacMam baculovirus, pFastBacMam)
T1 sequence (Q86X55 2-585 isoform Q86X55-1): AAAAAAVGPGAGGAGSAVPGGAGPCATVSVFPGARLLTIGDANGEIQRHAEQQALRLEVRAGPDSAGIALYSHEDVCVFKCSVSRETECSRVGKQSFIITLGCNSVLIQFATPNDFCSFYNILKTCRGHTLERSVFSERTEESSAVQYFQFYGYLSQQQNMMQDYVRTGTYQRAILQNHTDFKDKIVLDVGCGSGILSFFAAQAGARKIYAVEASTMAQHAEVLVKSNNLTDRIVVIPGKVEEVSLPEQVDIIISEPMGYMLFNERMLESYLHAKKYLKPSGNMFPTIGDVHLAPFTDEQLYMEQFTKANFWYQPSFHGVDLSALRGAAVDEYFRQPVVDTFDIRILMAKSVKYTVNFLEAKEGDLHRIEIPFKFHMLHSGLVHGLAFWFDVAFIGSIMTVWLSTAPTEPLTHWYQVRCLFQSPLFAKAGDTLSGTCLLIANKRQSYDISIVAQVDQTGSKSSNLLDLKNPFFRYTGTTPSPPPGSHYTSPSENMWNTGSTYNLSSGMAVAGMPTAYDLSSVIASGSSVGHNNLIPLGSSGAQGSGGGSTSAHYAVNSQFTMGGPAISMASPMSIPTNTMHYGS
Source text: S-adenosylmethionine (SAM), S-adenosylhomocysteine (SAH), bicine, Tween20, dimethylsulfoxide (DMSO), bovine skin gelatin (BSG), sodium butyrate and Tris(2-carboxyethyl)phosphine hydrochloride solution (TCEP) were purchased from Sigma-Aldrich at the highest level of purity possible. ^3H-SAM was purchase from American Radiolabeled Chemicals with a specific activity of 80 Ci/mmol. 384-well streptavidin Flashplates were purchased from PerkinElmer.
Peptide representative of human histone H3 residues 16-30 was synthesized with an N-terminal linker-affinity tag motif and a C-terminal amide cap by 21st Century Biochemicals. The peptide was purified by high-performance liquid chromatography (HPLC) to greater than 95% purity and confirmed by liquid chromatography mass spectrometry (LC-MS). The sequence was Biot-Ahx-[…]-amide and contained a monomethylated arginine at position 26 (SEQ ID NO.: 14).
Human CARM1 (PRMT4) (NM_199141.1) transcript clone was amplified from an HEK 293 cDNA library, incorporating a flanking 5′ sequence encoding a FLAG tag ([…]) (SEQ ID NO.: 6) fused directly to Ala 2 of CARM1 and 3′ sequence encoding a hexa His sequence ([…]) (SEQ ID NO.: 15) fused directly to Ser 608. The gene sequence encoding isoform1 containing a deletion of amino acids 539-561 was amplified subsequently and subcloned into pFastBacMam (Viva Biotech).
Recombinant baculovirus were generated according to Bac-to-Bac kit instructions (Life Technologies). […] Infections were carried out at 37° C. for 48 hours, harvested by centrifugation, and stored at −80° C. for purification.
Column was washed with 500 mM NaCl in buffer A and Flag-CARM1-His was eluted with 200 ug/ml FLAG peptide in buffer A. Pooled fractions were dialyzed in 20 mM Tris, 150 mM NaCl, 5% glycerol and 1 mM DTT, pH 7.8. The purity of recovered protein was 94.
General Procedure for CARM1 Enzyme Assays on Peptide Substrates.
The assays were all performed in a buffer consisting of 20 mM Bicine (pH=7.6), 1 mM TCEP, 0.005% BSG, and 0.002% Tween 20, prepared on the day of use. Compounds in 100% DMSO (1 ul) were spotted into a polypropylene 384-well V-bottom plates (Greiner) using a Platemate Plus outfitted with a 384-channel head (Thermo Scientific). DMSO (1 ul) was added to Columns 11, 12, 23, 24, rows A-H for the maximum signal control and 1 ul of SAH, a known product and inhibitor of CARM1, was added to columns 11, 12, 23, 24, rows I-P for the minimum signal control. A cocktail (40 ul) containing the CARM1 enzyme was added by Multidrop Combi (Thermo-Fisher). The compounds were allowed to incubate with CARM1 for 30 min at room temperature, then a cocktail (10 ul) containing ^3H-SAM and peptide was added to initiate the reaction (final volume=51 ul). The final concentrations of the components were as follows: CARM1 was 0.25 nM, ^3H-SAM was 30 nM, peptide was 250 nM, SAH in the minimum signal control wells was 1 mM, and the DMSO concentration was 2%. The assays were stopped by the addition of non-radiolabeled SAM (10 ul) to a final concentration of 300 uM, which dilutes the ^3H-SAM to a level where its incorporation into the peptide substrate is no longer detectable. 50 ul of the reaction in the 384-well polypropylene plate was then transferred to a 384-well Flashplate and the biotinylated peptides were allowed to bind to the streptavidin surface for at least 1 hour before being washed once with 0.1% Tween20 in a Biotek ELx405 plate washer. The plates were then read in a PerkinElmer TopCount plate reader to measure the quantity of ^3H-labeled peptide bound to the Flashplate surface, measured as disintegrations per minute (dpm) or alternatively, referred to as counts per minute (cpm).
Where dpm=disintegrations per minute, cmpd=signal in assay well, and min and max are the respective minimum and maximum signal controls.
Where top and bottom are the normally allowed to float, but may be fixed at 100 or 0 respectively in a 3-parameter fit. […]

Row | Compound | pIC50 [1] | pIC50 (Human CARM1 (PRMT4))
1 | CC(C)n1ncc2c(C(=O)NCc3ccncc3)cc(-c3cccc(CN(C)CCN)c3)nc21 [Compound 172] | 5.50 | 8.25
2 | CCOC(=O)Nc1cc(-c2cccc(CN(C)CCN)c2)nc2c1cnn2C(C)C [Compound 173] | 5.48 | 8.23
3 | CN(CCN)Cc1cccc(-c2nc(NC3CCOCC3)c3cnn(C4CC4)c3n2)c1 [Compound 174] | 5.30 | 8.21
4 | CC(C)n1ncc2c(NC(=O)NC3CCOCC3)cc(-c3cccc(CN(C)CCN)c3)nc21 [Compound 175] | 4.94 | 8.16
5 | CNCCN(C)Cc1cccc(-c2cc(C(=O)NCc3cnc4ccccn34)c3cnn(C(C)C)c3n2)c1 [Compound 176] | 6.06 | 8.14
6 | CNCCN(C)Cc1cccc(-c2nc(NC3CCOCC3)c3cnn(C4CC4)c3n2)c1 [Compound 179] | 5.31 | 8.05
7 | CNCCN(C)Cc1cccc(-c2cc(C(=O)NCc3cn4cccc(C)c4n3)c3cnn(C(C)C)c3n2)c1 [Compound 181] | 6.14 | 8.02
8 | Cc1c(CNC(=O)c2cc(-c3cccc(CN(C)CCN)c3)nc3c2cnn3C(C)C)cnn1C [Compound 183] | 5.71 | 7.93
9 | CC(C)n1ncc2c(C(=O)NCc3cncn3C)cc(-c3cccc(CN(C)CCN)c3)nc21 [Compound 185] | 4.97 | 7.93
10 | CNCCN(C)Cc1cccc(-c2cc(OC3CCOCC3)c3cnn(C(C)C)c3n2)c1 [Compound 187] | 5.22 | 7.92
11 | CNCCN(C)Cc1cccc(-c2cc(C3=CCOCC3)c3cnn(C(C)C)c3n2)c1 [Compound 188] | 5.08 | 7.91
12 | CC(C)n1ncc2c(C(=O)NCc3nccs3)cc(-c3cccc(CN(C)CCN)c3)nc21 [Compound 189] | 5.72 | 7.91
13 | CNCCN(C)Cc1cccc(-c2cc(NC(=O)OC)c3cnn(C(C)C)c3n2)c1 [Compound 190] | 5.61 | 7.90
